Test results reported in article PMC3236199, “Development of Derivatives of 3, 3′-Diindolylmethane as Potent Leishmania donovani Bi-Subunit Topoisomerase IB Poisons” (PLoS ONE, 2011).

Columns and labels:
[1] = test system: DIM resistant L. donovani promastigotes (DR50); experiment: Cell viability assay, DIM resistant promastigotes; format: cell-based; settings: Leishmania donovani, 12 h, read-out: growth inhibited
Protocol: L. donovani strain AG83 and DIM resistant parasite DR50 promastigotes were grown at 22°C in M199 liquid media supplemented with 10% FBS as described. Axenic amastigotes were cultured in modified M199 medium (pH 5.3) supplemented with 10 mM sodium succinate, 40 mM HEPES and 25% FCS and maintained at 37°C with 5% CO2.The effect of drugs on the viability of Leishmania parasites was determined by direct microscopic counting using light microscope (40× objective) in a haemocytometer. The cells at the exponential phase were collected and transferred into 24-well plate (3.5×10^6 cells per well). The cells were then incubated for 12 h in the presence of various concentrations of DIM, DPDIM, DMDIM and DMODIM (1, 5, 10, 20 and 50 µM). For other experiments, 10^4 cells were taken and grown in presence of the respective derivatives for a period of 30 days. For each 5 day interval, a small amount of aliquots were taken out. After incubation the cells were centrifuged and cell pellet was washed with PBS (1×) twice and finally suspended in 1 ml PBS (1×). Fifty µl of aliquot was taken, mixed with 0.4% trypan blue solution and incubated for 3 min at 22°C. One drop of the mixture was transferred to haemocytometer and the clear (live) and blue (dead) cells were counted. The total number of viable cells in aliquot was calculated by multiplying the total number of viable cells by 2 (the dilution factor for trypan blue). To obtain the total number of cells in the aliquot, total number of viable and nonviable cells were added up and multiplied by 2. Percentages of viable cells were calculated using the formula: [drawing 1]
The effects of different derivatives of DIM on cell proliferation were tested by incubating wild type and DIM resistant L. donovani promastigotes (3.5×10^6 cells/ml) with the drugs. […] The number of live promastigotes was measured by differential staining of live and dead cells using light microscope under 40× objective (Fig. 2). […]
Figure 2 Effect of DIM-derivatives on Leishmania parasites. Growth of L. donovani AG83 promastigotes (A) and DIM resistant promastigotes (B) were monitored in presence of increasing concentrations (1, 5, 10, 20 and 50 µM) of DIM, DPDIM, DMDIM and DMODIM for 12 h. […] Change in IC50 values after a prolong exposure to DIM derivatives (C) has been assessed as described in Materials and Methods. After every 5 day a small aliquot was taken out and number of viable promastigotes was counted for each concentration. IC50 values have been determined from them using Graph Pad Prsim ver 5.0 software and a graphical plot was generated over time. Growth of the parasites treated with the compounds was expressed as percentage of the viable promastigotes compared with that of control. […]

LdTOP1LS = experiment: Equilibrium (duplex oligonucleotide) cleavage assay, wild type enzyme; format: biochemical, Leishmania donovani; settings: 20 µM, with respect to cleavable complex formed without drug with wild type enzyme
Protocol: The 25-mer oligonucleotide 1 (5′-GAAAAAAGACTT↓AGAAAAATTTTTA-3′) was 5′-end labeled with [γ^32P] ATP and annealed with oligonucleotide 2 (5′-[…]-3′) to make a duplex oligonucleotide containing a topoisomerase I binding motif as described. Cleavage assay was carried out using 20-fold molar excess of enzymes over duplex 25-mer DNA (enzymes, 0.2 µM; DNA, 10 nM). The reactions were carried out in standard assay condition in the absence or presence of drugs at 37°C for 30 min. All the reactions were stopped by addition of SDS to a final concentration of 2% (w/v), digested with 5 µl of 1 mg/ml trypsin and analyzed by 12% denaturing polyacrylamide gel followed by autoradiography. The amount of strand cleavage in the presence of drugs was determined by densitometry of the film as described.
The effect of DIM and its derivatives on L. donovani topoisomerase I was examined by plasmid DNA cleavage assay as described. The topoisomerase reaction has three general mechanistic steps: (i) binding of enzyme to the substrate DNA, (ii) single strand breakage and subsequent strand rotation through the break leading to change in linking number, and (iii) strand religation. The second step of reaction is the introduction of a single-stranded nick in the phosphodiester bond of the DNA, through which an intact strand is allowed to pass. During this process, a covalent bond is formed between the 3′-phosphoryl group of the DNA backbone and the tyrosine residue at the active site of topoisomerase I. Topoisomerase inhibition can be achieved by prevention of enzyme-DNA binary complex formation or by stabilization of enzyme-DNA cleavable complex. To investigate the ability of DIM-derivatives to stabilize the cleavable complex formation between enzyme and oligonucleotide containing a topoisomerase IB specific binding motif we carried out plasmid cleavage assay as described previously. Cleavage assay was performed with LdTOP1LS and pHOT1 DNA containing a topoisomerase IB specific binding motif as described in ‘Materials and Methods’. […]

SMILES | inhibition at 20 µM [1] | extent of cleavage (LdTOP1LS)
c1ccc2c(Cc3c[nH]c4ccccc34)c[nH]c2c1 [DIM, 3, 3′-diindolyl methane, reference compound] | 20% | –
Cc1[nH]c2ccccc2c1Cc1c(C)[nH]c2ccccc12 [DMDIM, 2,2′-dimethyl 3,3′-diindolyl methane] | 85% | approximately 61%
COc1ccc2[nH]cc(Cc3c[nH]c4ccc(OC)cc34)c2c1 [DMODIM, 5,5′-dimethoxy 3,3′-diindolyl methane] | 65% | ~56%
c1ccc(-c2[nH]c3ccccc3c2Cc2c(-c3ccccc3)[nH]c3ccccc23)cc1 [DPDIM, 2,2′-diphenyl 3,3′-diindolyl methane] | 90% | 67%
